This note sets out measurements from ChEMBL document CHEMBL4387723, “Ultrasonication-ionic liquid synergy for the synthesis of new potent anti-tuberculosis 1,2,4-triazol-1-yl-pyrazole based spirooxindolopyrrolizidines” (Bioorg Med Chem Lett, 2019).

In brackets after ≈: the same amount, converted by molar mass. Bounds are passed on as bounds.

For series [1], the system named is Mycobacterium tuberculosis. Description: Potency index, ratio of ethambutol MIC to test compound MIC for antitubercular activity against Mycobacterium tuberculosis H37Rv incubated for […] by microplate alamar blue assay. The class given is functional. A general note: Alamar Blue is a resazurin reagent that responds to reducing activity.
Series [2] deals with Mycobacterium tuberculosis. Description: Antitubercular activity against Mycobacterium tuberculosis H37Rv incubated for 7 days by microplate alamar blue assay. The class given is functional. Particulars: 168 h.
The nature of series [3]: Cytotoxicity against mouse RAW264.7 cells assessed as reduction in cell viability at 25 ug/ml incubated for 48 hrs by MTT assay relative to control. The class given is cell-based. Particulars: read-out: INH.

Turning to `Cc1nn(-c2ccccc2)c(-n2cncn2)c1C1C2CCCN2C2(C(=O)Nc3ccc(Cl)cc32)C1C(=O)c1ccccc1` (stereo unspecified), in series [1], the Ratio was above 1. Further, inhibition of growth in series [2] (MIC) required 0.78 µg/mL (≈ 1.32 µM). Besides, in series [3], the cytotoxicity at 48 h, 25 ug/ml came out at 19.8%.
For `COc1ccc(C(=O)C2C(c3c(C)nn(-c4ccccc4)c3-n3cncn3)C3CCCN3C23C(=O)Nc2ccccc23)cc1` (stereo unspecified), the MIC (usually the lowest concentration found to suppress growth) in series [2] was 12.5 µg/mL (≈ 21.3 µM).
Compound `Cc1nn(-c2ccccc2)c(-n2cncn2)c1C1C2CCCN2C2(C(=O)Nc3ccccc32)C1C(=O)c1ccccc1` (stereo unspecified) gave an MIC in series [2] above 25 µg/mL.
Compound `Cc1nn(-c2ccccc2)c(-n2cncn2)c1C1C2CCCN2C2(C(=O)Nc3ccccc32)C1C(=O)c1ccc(Br)cc1` (stereo unspecified) registered an MIC in series [2] of 1.56 µg/mL (≈ 2.46 µM). For the same compound, the cytotoxicity at 48 h, 25 ug/ml in series [3] turned out to be 27.1%.
In the same order, the values of `Cc1nn(-c2ccccc2)c(-n2cncn2)c1C1C2CCCN2C2(C(=O)Nc3ccc(Br)cc32)C1C(=O)c1ccc(Cl)cc1` (stereo unspecified) are 1.56 µg/mL (≈ 2.33 µM) and 22.4%.
Compound `Cc1nn(-c2ccccc2)c(-n2cncn2)c1C1C2CCCN2C2(C(=O)Nc3ccc(Cl)cc32)C1C(=O)c1ccc([N+](=O)[O-])cc1` (stereo unspecified) gave an MIC in series [2] of 1.56 µg/mL (≈ 2.46 µM). Also, the cytotoxicity at 48 h, 25 ug/ml in series [3] came to 24.9%.
In the same order, the values of `Cc1nn(-c2ccccc2)c(-n2cncn2)c1C1C2CCCN2C2(C(=O)Nc3ccc(Cl)cc32)C1C(=O)c1cccc([N+](=O)[O-])c1` (stereo unspecified) are 6.25 µg/mL (≈ 9.84 µM) and 19%.
For `Cc1nn(-c2ccccc2)c(-n2cncn2)c1C1C2CCCN2C2(C(=O)Nc3ccc(Br)cc32)C1C(=O)c1ccc([N+](=O)[O-])cc1` (stereo unspecified), in that order: 6.25 µg/mL (≈ 9.2 µM) and 26.4%.
`Cc1nn(-c2ccccc2)c(-n2cncn2)c1C1C2CCCN2C2(C(=O)Nc3ccccc32)C1C(=O)c1ccc(Cl)cc1` (stereo unspecified) had an MIC in series [2] of 6.25 µg/mL (≈ 10.6 µM). For the same compound, the cytotoxicity at 48 h, 25 ug/ml in series [3] is 16.9%.
For the compound `Cc1nn(-c2ccccc2)c(-n2cncn2)c1C1C2CCCN2C2(C(=O)Nc3ccccc32)C1C(=O)c1cccc([N+](=O)[O-])c1` (stereo unspecified), the MIC in series [2] was above 25 µg/mL.
In the case of `Cc1nn(-c2ccccc2)c(-n2cncn2)c1C1C2CCCN2C2(C(=O)Nc3ccc(Br)cc32)C1C(=O)c1cccc([N+](=O)[O-])c1` (stereo unspecified), in series [2], the MIC amounted to 6.25 µg/mL (≈ 9.2 µM). Besides, the cytotoxicity at 48 h, 25 ug/ml in series [3] amounted to 20.1%.
As for `COc1ccc(C(=O)C2C(c3c(C)nn(-c4ccccc4)c3-n3cncn3)C3CCCN3C23C(=O)Nc2ccc(Br)cc23)cc1` (stereo unspecified), the MIC in series [2] turned out to be 25 µg/mL (≈ 37.6 µM).
In series [2], `Cc1nn(-c2ccccc2)c(-n2cncn2)c1C1C2CCCN2C2(C(=O)Nc3ccc(Cl)cc32)C1C(=O)c1ccc(Cl)cc1` (stereo unspecified) registered an MIC of 1.56 µg/mL (≈ 2.5 µM). Besides, the cytotoxicity at 48 h, 25 ug/ml in series [3] amounted to 17.9%.
For `Cc1nn(-c2ccccc2)c(-n2cncn2)c1C1C2CCCN2C2(C(=O)Nc3ccc(Br)cc32)C1C(=O)c1ccccc1` (stereo unspecified), in that order: 3.12 µg/mL (≈ 4.92 µM) and 18.6%.
In the same order, the values of `Cc1nn(-c2ccccc2)c(-n2cncn2)c1C1C2CCCN2C2(C(=O)Nc3ccc(Br)cc32)C1C(=O)c1ccc(Br)cc1` (stereo unspecified) are 1.56 µg/mL (≈ 2.19 µM) and 22%.
Compound `Cc1ccc(C(=O)C2C(c3c(C)nn(-c4ccccc4)c3-n3cncn3)C3CCCN3C23C(=O)Nc2ccccc23)cc1` (stereo unspecified) showed an MIC in series [2] above 25 µg/mL.
`Cc1nn(-c2ccccc2)c(-n2cncn2)c1C1C2CCCN2C2(C(=O)Nc3ccccc32)C1C(=O)c1ccc([N+](=O)[O-])cc1` (stereo unspecified) had an MIC in series [2] of 6.25 µg/mL (≈ 10.4 µM). The cytotoxicity at 48 h, 25 ug/ml in series [3] is 29.6%.
For `COc1ccc(C(=O)C2C(c3c(C)nn(-c4ccccc4)c3-n3cncn3)C3CCCN3C23C(=O)Nc2ccc(Cl)cc23)cc1` (stereo unspecified), in that order: 3.12 µg/mL (≈ 5.03 µM) and 21.6%.
`Cc1ccc(C(=O)C2C(c3c(C)nn(-c4ccccc4)c3-n3cncn3)C3CCCN3C23C(=O)Nc2ccc(Cl)cc23)cc1` (stereo unspecified): in series [2], the MIC stood at 25 µg/mL (≈ 41.4 µM).
As for `Cc1nn(-c2ccccc2)c(-n2cncn2)c1C1C2CCCN2C2(C(=O)Nc3ccc(Cl)cc32)C1C(=O)c1ccc(Br)cc1` (stereo unspecified), the lowest concentration to inhibit growth in series [2] (MIC) was 1.56 µg/mL (≈ 2.33 µM). The cytotoxicity at 48 h, 25 ug/ml in series [3] came to 26.4%.
The compound `CC[C@@H](CO)NCCN[C@@H](CC)CO` [ETHAMBUTOL] registered an MIC in series [2] of 1.56 µg/mL (≈ 7.64 µM).
